Data from US20250263437A1, “POLYPEPTIDE FOR REPAIRING SKIN WOUND OR MUCOSAL INJURY, AND APPLICATION THEREOF” (Sichuan Gooddoctor Panxi Pharmaceutical Co., Ltd., priority 2021, published 2025).
Where no end group is shown, it is not given here.

Each substance was assayed on ethanol-induced gastric ulcer model in mice (assay: Anti-ulcer effect on ethanol-induced gastric ulcer model in mice). Conditions: single administration; ulcer inhibition rate of test compound / ulcer inhibition rate of Compound 1.
Type: in vivo
Procedure: Experimental animals: Six-week old C57BL/6JGPt male mice, weighing about 20 g/mouse, were selected, with 10 mice in each group, from GemPharmatech (Chengdu) Co., Ltd., animal license number: SCXK (Chuan) 2020-034. After the experimental animals were divided into groups, they were dosed according to Table 5 one day before the experiment. Among the groups, the model group was given 200 μl of pure water, and the other dose groups were given 200 μl of drug solution. After that, all the animals were fasted for 24 h with free access to water. The next day, 1 h after administration, the mice in each group were given 9 μl/g of absolute ethanol by oral gavage for modeling. After 1 h, the animals were sacrificed by cervical dislocation, the gastric cardia was ligated, the pylorus was occluded, and the whole stomach was removed. 1 mL of 1% formaldehyde solution was injected into the gastric lumen via the glandular stomach, the cardia was ligated, and the stomach was taken out and immediately immersed in 1% formaldehyde solution. After soaking for 30 min, the stomach tissue was taken out and cut open along the greater curvature. The content of the stomach was rinsed off with normal saline, the injury of the gastric mucosa in the mice were observed and measured after being laid flat, and the ulcer index and ulcer inhibition rate were calculated; panoramic photos of the stomach were taken; and finally, the gastric tissue sample was immersed in formalin and fixed. Calculation method for ulcer index: If the length of cord-like injury was greater than 1 mm, the length thereof was measured, with 1 point per millimeter; if the width thereof was greater than 1 mm, the score thereof was doubled according to the number of millimeters of the width; and if the length was less than 1 mm, a score of 0.5 was given, and the scores were added up to obtain the ulcer index of the animal. Method of data statistics: the ulcer index was expressed as mean±standard deviation; the ulcer inhibition rate was calculated by using the median value and mean value of the ulcer index in each dosage group and simulation group; and the data were statistically analyzed by means of Excel, and the difference data of the gastric ulcer index were statistically analyzed by means of independent sample T test.

Row | Substance | Anti-ulcer activity (mean relative ulcer inhibition rate)
1 | AAVLEKLE [Compound 69] | 1.25
2 | AEPVPLEAEAKGKAE [Compound 54] | 0.59
3 | AMQASLEAEAKGKAE [Compound 29] | 1.00
4 | EAEAAGKAE [Compound 61] | 0.52
5 | EAEAKGK [Compound 46] | 0.47
6 | EAEAKGKAE [Compound 7] | 1.69
7 | FDALKQQFQAFQLE [Compound 62] | 0.89
8 | Gln-Ala-Ser-Leu (QASL; printed: Gln-Ala-Ser-Leu) [Compound 9] | 0.59
9 | Glu-Ala-Glu-Ala (EAEA; printed: Glu-Ala-Glu-Ala) [Compound 45] | 0.50
10 | Gly-Lys-Ala-Glu (GKAE; printed: Gly-Lys-Ala-Glu) [Compound 10] | 0.56
11 | PAAEPVPLEAEAKGKAE [Compound 55] | 0.20
12 | QASLEAEAKGK [Compound 4] | 0.82
13 | QASLEAEAKGKAE [Compound 2] | 0.45
14 | RKDVYEAEAKGKAE [Compound 59] | 0.48
15 | SAQASLEAEAKGKAE [Compound 16] | 0.98
16 | SIQASLEAEAKGKAE [Compound 22] | 0.81
17 | SLQASLEAEAKGKAE [Compound 17] | 0.74
18 | SMAASLEAEAKGKAE [Compound 21] | 0.87
19 | SMEASLEAEAKGKAE [Compound 37] | 0.22
20 | SMQAALEAEAKGKAE [Compound 28] | 0.67
21 | SMQASAEAEAKGKAE [Compound 15] | 0.72

Row | Substance | Anti-ulcer activity (mean relative ulcer inhibition rate)
22 | SMQASL [Compound 8] | 0.89
23 | SMQASLAAEAKGKAE [Compound 19] | 0.64
24 | SMQASLDAEAKGKAE [Compound 38] | 1.38
25 | SMQASLEAAAKGKAE [Compound 20] | 0.56
26 | SMQASLEADAKGKAE [Compound 39] | 0.83
27 | SMQASLEAEAAGKAE [Compound 18] | 0.91
28 | SMQASLEAEAHGKAE [Compound 32] | 0.52
29 | SMQASLEAEAK [Compound 5] | 0.84
30 | SMQASLEAEAKAKAE [Compound 56] | 0.91
31 | SMQASLEAEAKGAAE [Compound 26] | 0.56
32 | SMQASLEAEAKGHAE [Compound 31] | 0.50
33 | SMQASLEAEAKGK [Compound 3] | 0.33
34 | SMQASLEAEAKGKAA [Compound 27] | 0.51
35 | SMQASLEAEAKGKAD [Compound 23] | 0.70
36 | SMQASLEAEAKGKAEA [Compound 52] | 0.67
37 | SMQASLEAEAKGKAEL [Compound 51] | 0.62
38 | SMQASLEAEAKGKAKQD [Compound 53] | 0.44
39 | SMQASLEAEAKGKAKQE [Compound 58] | 0.52
40 | SMQASLEAEAKGKAN [Compound 24] | 0.62
41 | SMQASLEAEAKGKAQ [Compound 13] | 1.02
42 | SMQASLEAEAKGKAQD [Compound 49] | 0.48

Row | Substance | Anti-ulcer activity (mean relative ulcer inhibition rate)
43 | SMQASLEAEAKGKAQE [Compound 50] | 0.09
44 | SMQASLEAEAKGKSE [Compound 60] | 1.03
45 | SMQASLEAEAKGRAE [Compound 25] | 0.36
46 | SMQASLEAEAKPKAE [Compound 57] | 1.12
47 | SMQASLEAEARGKAE [Compound 30] | 0.33
48 | SMQASLEAESKGKAE [Compound 44] | 0.16
49 | SMQASLEALAKGKAE [Compound 34] | 0.91
50 | SMQASLEAQAKGKAE [Compound 36] | 0.07
51 | SMQASLESEAKGKAE [Compound 43] | 0.30
52 | SMQASLLAEAKGKAE [Compound 33] | 0.31
53 | SMQASLQAEAKGKAE [Compound 35] | 0.57
54 | SMQASLQAQAKGKAE [Compound 14] | 0.49
55 | SMQASVEAEAKGKAE [Compound 42] | 0.84
56 | SMQATLEAEAKGKAE [Compound 41] | 0.92
57 | STQASLEAEAKGKAE [Compound 48] | 1.19
58 | SVQASLEAEAKGKAE [Compound 12] | 0.68
59 | Ser-Met (O)-Gln-Ala-Ser-Leu-Glu-Ala-Glu-Ala-Lys-Gly-Lys-Ala-Glu [Compound 11] | 1.08
60 | TASTLEAEAKGKAE [Compound 47] | 0.61
61 | TMQASLEAEAKGKAE [Compound 40] | 0.18
62 | Teprenone [reference compound] | 0.5

Each substance was assayed on HaCaT cells (assay: Proliferation of HaCaT cells (CCK8)). Conditions: 0.2-0.8 μg/mL; 24 h, 48 h and 72 h; 1% serum.
Type: cell-based, human
Procedure: Experimental method: Immortalized human keratinocytes (HaCaT cells) was adjusted to a concentration of 1.0×10^5 to 5.0×10^5/mL for passaging, and they were cultured at 37° C. and 5% CO2 for 24-36 h for biological activity detection. The cells were digested with 0.25% trypsin for 5 min, 1640 whole blood culture medium, the volume of which was not less than 1 time of the volume of the trypsin, was added to stop digestion, a cell suspension was collected, centrifuged at 1000 RPM for 3 min, the supernatant was discarded, 2 mL of 1640 whole blood culture medium was added to suspend the cells, 20 μL of the cell suspension was taken and stained with AOPI, the concentration of cells in the suspension was then detected by a cell counter, the suspension was prepared to a concentration of 5×10^4/mL with 1640 culture medium containing serum at a concentration of 10% and inoculated into a 96-well cell culture plate, with 100 μL per well, i.e., 5000 cells/well, and the plate was cultured at 37° C. and 5% CO2 overnight.
After 24 h, the original culture medium was discarded, and 100 μL of polypeptide compound solutions with different concentrations prepared with 1640 culture medium containing serum at a concentration of 1% were added, such that the final concentrations of the polypeptide compounds to be tested were 0.2, 0.4 and 0.8 ug/mL, respectively. In addition, an EGF control group was prepared by adding 100 μL of a recombinant human epidermal growth factor (EGF) solution prepared with 1640 culture medium containing serum at a concentration of 1%, with the final concentration being 100 ng/ml. In the model control group, an equal volume of 1640 culture medium containing serum at a concentration of 1% was added. After culturing at 37° C. and 5% CO2 for 24 h, 48 h and 72 h, the proliferation of the HaCaT cell line was detected by means of CCK8 kit.

Row | Substance | effect on proliferation of HaCaT cells
63 | AAVLEKLE [Compound 69] | proliferation-promoting effect
64 | SMQASLEAEAKGKAKQD [Compound 53] | proliferation-promoting effect
65 | SMQASLEAEAKPKAE [Compound 57] | proliferation-promoting effect

What follows are substances tested against FGFR1 (Homo sapiens, UniProt P11362) (assay: FGFR receptor binding assay: ultrafiltration/mass spectrometry affinity screening to FGFR1 protein target). Conditions: ratio of lower-layer to upper-layer compound MS signal intensity; the greater the ratio, the stronger the affinity.
FGFR1, sequence (P11362 22-822, species assumed): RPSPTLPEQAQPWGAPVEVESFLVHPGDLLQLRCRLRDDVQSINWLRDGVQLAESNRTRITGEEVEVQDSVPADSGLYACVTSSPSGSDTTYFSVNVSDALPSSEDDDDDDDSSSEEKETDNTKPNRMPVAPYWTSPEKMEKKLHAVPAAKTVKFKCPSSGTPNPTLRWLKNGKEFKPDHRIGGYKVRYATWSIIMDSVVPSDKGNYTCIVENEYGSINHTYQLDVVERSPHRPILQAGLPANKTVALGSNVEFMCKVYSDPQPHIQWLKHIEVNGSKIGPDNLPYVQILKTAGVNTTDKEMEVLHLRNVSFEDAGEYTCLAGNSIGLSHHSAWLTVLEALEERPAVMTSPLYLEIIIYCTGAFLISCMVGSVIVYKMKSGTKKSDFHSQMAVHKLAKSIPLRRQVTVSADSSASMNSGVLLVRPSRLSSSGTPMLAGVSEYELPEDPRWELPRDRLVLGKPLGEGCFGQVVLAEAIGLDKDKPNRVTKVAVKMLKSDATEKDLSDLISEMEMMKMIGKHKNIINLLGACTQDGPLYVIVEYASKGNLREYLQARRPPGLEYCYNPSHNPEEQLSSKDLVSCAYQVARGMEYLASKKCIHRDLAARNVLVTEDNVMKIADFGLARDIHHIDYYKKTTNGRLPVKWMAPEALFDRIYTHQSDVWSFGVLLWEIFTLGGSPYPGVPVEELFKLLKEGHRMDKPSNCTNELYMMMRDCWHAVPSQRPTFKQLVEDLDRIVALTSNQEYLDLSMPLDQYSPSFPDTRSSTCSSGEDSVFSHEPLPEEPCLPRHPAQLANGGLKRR
Procedure: The affinity of the polypeptide compound prepared by the present invention to FGFR1 was tested by using a control FGFR1 allosteric inhibitor (product number SSR128129E from Sigma) as a positive compound control.
Screening for the affinity to FGFR1 was as follows: FGFR1 solutions with an appropriate concentration were taken, the positive compound SSR128129E (Sigma) at an appropriate concentration and sample solutions of the inventive polypeptide compounds, as freeze-dried powders, dissolved in protein buffers were then respectively added. After incubation at room temperature for 50 min, ultrafiltration and screening were carried out to obtain various treated solutions. An appropriate volume of acetonitrile was added to each treated solution to precipitate a protein, the solution was then centrifuged, and the supernatant was taken and analyzed by mass spectrometry.
Affinity screening conditions: One-dimensional liquid-phase conditions were: chromatographic column; PolyLC chromatographic column, mobile phase A: KH2PO4, NaCl, pH 7.5, mobile phase B: acetonitrile, column temperature: 8° C., flow rate: 1 mL/min, and injection volume: appropriate; and two-dimensional liquid-phase conditions were: chromatographic column: BONUS RRHD, mobile phase A: 0.1% formic acid aqueous solution, mobile phase B: 0.1% formic acid in acetonitrile, column temperature: 60° C., flow rate: 0.3 mL/min, and injection volume: 40 uL. Gradient elution was used, i.e., 98% A (0-1 min), 98-10% A (1-6 min), 10% A (6-7.5 min), 10-98% A (7.5-8 min), and 98% A (8-9.5 min). Mass spectrometry conditions: Agilent 6530 Q-Tof, ESI ion source, voltage 3.5 KV, mass-to-charge ratio scanning range m/z=200-3000, acquisition mode: positive ion scanning, ion source temperature: 350° C., solvent removal temperature: 300° C., and nitrogen flow rate: 8 L/min.

Row | Cb/Ct range | Substance
66 | 1.0-3 | AAVLEKLE [Compound 69]
67 | 1.0-3 | FDALKQQFQAFQLE [Compound 62]
